Source: the NIST ThermoML archive (doi:10.1016/j.jct.2015.04.006)

Assay: mn = molality of the nth substance listed, in mol/kg
Settings: 100 kPa, Liquid; for speed of sound: Frequency=3 MHz, Sing-around technique in a fixed-path interferometer; for mass density: Vibrating tube method

CCCC[N+]1(C)CCOCC1.O=S(=O)([N-]S(=O)(=O)C(F)(F)F)C(F)(F)F + C[S+](C)[O-]
Settings	mass density, 298.15 K [kg/m3]	mass density, 303.15 K [kg/m3]	mass density, 308.15 K [kg/m3]	mass density, 313.15 K [kg/m3]	mass density, 318.15 K [kg/m3]	speed of sound, 298.15 K [m/s]	speed of sound, 303.15 K [m/s]	speed of sound, 308.15 K [m/s]	speed of sound, 313.15 K [m/s]	speed of sound, 318.15 K [m/s]
m1 = 0.01276	1096.62	1091.6	1086.58	1081.57	1076.55	1483.5	1466.6	1449.8	1433.1	1416.5
m1 = 0.01778	1097.14	1092.12	1087.11	1082.09	1077.08	1483	1466.2	1449.3	1432.6	1416.1
m1 = 0.02681	1098.08	1093.06	1088.05	1083.03	1078.02	1482.2	1465.4	1448.6	1431.9	1415.4
m1 = 0.04025	1099.46	1094.44	1089.43	1084.42	1079.41	1481	1464.2	1447.5	1430.8	1414.3
m1 = 0.05498	1100.96	1095.95	1090.94	1085.93	1080.93	1479.7	1462.9	1446.2	1429.6	1413.1
m1 = 0.06956	1102.43	1097.42	1092.42	1087.41	1082.41	1478.5	1461.7	1445	1428.4	1412
m1 = 0.08753	1104.23	1099.22	1094.22	1089.22	1084.22	1476.9	1460.1	1443.5	1426.9	1410.6
m1 = 0.1103	1106.47	1101.47	1096.47	1091.48	1086.48	1475	1458.2	1441.6	1425.1	1408.8
m1 = 0.1334	1108.73	1103.73	1098.73	1093.74	1088.75	1472.9	1456.3	1439.7	1423.3	1407
m1 = 0.1687	1112.1	1107.11	1102.12	1097.13	1092.14	1470	1453.4	1436.9	1420.5	1404.4

CC[N+]1(C)CCOCC1.O=S(=O)([N-]S(=O)(=O)C(F)(F)F)C(F)(F)F + C[S+](C)[O-]
Settings	mass density, 298.15 K [kg/m3]	mass density, 303.15 K [kg/m3]	mass density, 308.15 K [kg/m3]	mass density, 313.15 K [kg/m3]	mass density, 318.15 K [kg/m3]	speed of sound, 298.15 K [m/s]	speed of sound, 303.15 K [m/s]	speed of sound, 308.15 K [m/s]	speed of sound, 313.15 K [m/s]	speed of sound, 318.15 K [m/s]
m1 = 0.01623	1097.17	1092.15	1087.13	1082.12	1077.11	1483.4	1466.5	1449.7	1433	1416.4
m1 = 0.02434	1098.11	1093.09	1088.07	1083.06	1078.05	1482.8	1465.9	1449.1	1432.4	1415.9
m1 = 0.03937	1099.83	1094.82	1089.8	1084.79	1079.78	1481.6	1464.8	1448	1431.3	1414.9
m1 = 0.04917	1100.95	1095.93	1090.92	1085.91	1080.9	1480.9	1464	1447.3	1430.7	1414.2
m1 = 0.063	1102.51	1097.5	1092.49	1087.48	1082.47	1479.8	1463	1446.3	1429.7	1413.3
m1 = 0.07874	1104.28	1099.27	1094.26	1089.26	1084.25	1478.6	1461.8	1445.2	1428.6	1412.2
m1 = 0.09932	1106.57	1101.56	1096.55	1091.55	1086.55	1477	1460.3	1443.7	1427.2	1410.8
m1 = 0.1197	1108.8	1103.8	1098.79	1093.79	1088.79	1475.5	1458.8	1442.3	1425.8	1409.5
m1 = 0.1515	1112.25	1107.24	1102.24	1097.25	1092.25	1473.2	1456.5	1440	1423.6	1407.4

CCCCCCCC[N+]1(C)CCOCC1.O=S(=O)([N-]S(=O)(=O)C(F)(F)F)C(F)(F)F + C[S+](C)[O-]
Settings	mass density, 298.15 K [kg/m3]	mass density, 303.15 K [kg/m3]	mass density, 308.15 K [kg/m3]	mass density, 313.15 K [kg/m3]	mass density, 318.15 K [kg/m3]	speed of sound, 298.15 K [m/s]	speed of sound, 303.15 K [m/s]	speed of sound, 308.15 K [m/s]	speed of sound, 313.15 K [m/s]	speed of sound, 318.15 K [m/s]
m1 = 0.0104	1096.19	1091.17	1086.16	1081.14	1076.13	1483.5	1466.6	1449.8	1433	1416.5
m1 = 0.01752	1096.81	1091.79	1086.78	1081.77	1076.76	1482.7	1465.8	1449	1432.3	1415.8
m1 = 0.0266	1097.59	1092.58	1087.57	1082.56	1077.56	1481.7	1464.8	1448.1	1431.4	1414.9
m1 = 0.03779	1098.55	1093.54	1088.53	1083.53	1078.53	1480.5	1463.7	1446.9	1430.2	1413.8
m1 = 0.04989	1099.57	1094.57	1089.57	1084.57	1079.57	1479.2	1462.4	1445.7	1429	1412.6
m1 = 0.06889	1101.17	1096.17	1091.17	1086.18	1081.19	1477.2	1460.4	1443.7	1427.1	1410.8
m1 = 0.08629	1102.6	1097.62	1092.62	1087.64	1082.65	1475.3	1458.6	1441.9	1425.4	1409.1
m1 = 0.1068	1104.29	1099.3	1094.32	1089.34	1084.36	1473.2	1456.5	1439.9	1423.4	1407.1
m1 = 0.1403	1106.96	1101.99	1097.02	1092.04	1087.08	1469.8	1453.1	1436.6	1420.2	1404
m1 = 0.1703	1109.31	1104.34	1099.38	1094.41	1089.45	1466.8	1450.2	1433.8	1417.4	1401.2
